Measurements: ChEMBL document CHEMBL5154789 (J Med Chem, 2022)
pIC50: −log10 of the molar value.

Key:
Hep 3B2 = experiment: cells; details: Homo sapiens, Hep3B, 120 h
Description: Antiproliferative activity against human Hep3B cells assessed as inhibition of cell growth incubated for 5 days by SRB assay

MDA-MB-453 = experiment: cells; details: Homo sapiens, MDA-MB-453, 120 h
Description: Antiproliferative activity against human MDA-MB-453 cells assessed as inhibition of cell growth incubated for 5 days by SRB assay

[1] = molecular target: Fibroblast growth factor receptor 2 (Homo sapiens, UniProt P21802)
Description: Inhibition of FGFR2 (unknown orgin) using Tyr 04 peptide as substrate incubated for 1 hr in presence of 5 uM ATP by FRET based Z'-LYTE assay

BaF3 [2] = experiment: cells; details: Mus musculus, BaF3, 72 h
[3] = molecular target: Fibroblast growth factor receptor 4 (Homo sapiens, UniProt P22455); experiment: Inhibition of N-terminal 6His-tagged FGFR4 (unknown orgin) (445 to 753 residues) expressed in Rosetta (NEB) cells using Tyr 04 peptide as substrate incubated for 1 hr in presence of 150 uM ATP by FRET based Z'-LYTE assay
Fibroblast growth factor receptor 4, sequence (P22455 whole entry, the tested form may be a part): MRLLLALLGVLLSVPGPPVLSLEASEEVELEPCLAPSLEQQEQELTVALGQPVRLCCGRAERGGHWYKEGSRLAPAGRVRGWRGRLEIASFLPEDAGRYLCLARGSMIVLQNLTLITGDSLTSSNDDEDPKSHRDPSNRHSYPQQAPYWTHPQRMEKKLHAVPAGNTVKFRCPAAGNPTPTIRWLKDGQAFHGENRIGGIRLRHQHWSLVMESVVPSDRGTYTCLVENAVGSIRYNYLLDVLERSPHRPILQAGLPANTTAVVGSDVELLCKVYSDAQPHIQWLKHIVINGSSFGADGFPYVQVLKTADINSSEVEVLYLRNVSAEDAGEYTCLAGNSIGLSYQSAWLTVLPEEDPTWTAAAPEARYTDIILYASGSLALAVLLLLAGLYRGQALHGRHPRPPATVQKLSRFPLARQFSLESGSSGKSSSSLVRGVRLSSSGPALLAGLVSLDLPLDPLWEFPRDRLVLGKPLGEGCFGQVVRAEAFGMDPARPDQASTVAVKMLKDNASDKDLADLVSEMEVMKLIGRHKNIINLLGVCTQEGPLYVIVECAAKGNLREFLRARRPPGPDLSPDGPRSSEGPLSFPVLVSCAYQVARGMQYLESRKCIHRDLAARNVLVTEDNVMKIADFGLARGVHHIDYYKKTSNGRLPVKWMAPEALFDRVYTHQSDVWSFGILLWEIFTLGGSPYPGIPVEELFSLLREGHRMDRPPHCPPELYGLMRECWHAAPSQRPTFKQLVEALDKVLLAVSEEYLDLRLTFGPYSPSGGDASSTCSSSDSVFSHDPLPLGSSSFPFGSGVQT

NCI-H1299 = experiment: cells; details: Homo sapiens, NCI-H1299, 120 h
Description: Antiproliferative activity against human NCI-H1299 cells assessed as inhibition of cell growth incubated for 5 days by SRB assay

[4] = molecular target: Fibroblast growth factor receptor 3 (Homo sapiens, UniProt P22607)
Fibroblast growth factor receptor 3, sequence (P22607 whole entry): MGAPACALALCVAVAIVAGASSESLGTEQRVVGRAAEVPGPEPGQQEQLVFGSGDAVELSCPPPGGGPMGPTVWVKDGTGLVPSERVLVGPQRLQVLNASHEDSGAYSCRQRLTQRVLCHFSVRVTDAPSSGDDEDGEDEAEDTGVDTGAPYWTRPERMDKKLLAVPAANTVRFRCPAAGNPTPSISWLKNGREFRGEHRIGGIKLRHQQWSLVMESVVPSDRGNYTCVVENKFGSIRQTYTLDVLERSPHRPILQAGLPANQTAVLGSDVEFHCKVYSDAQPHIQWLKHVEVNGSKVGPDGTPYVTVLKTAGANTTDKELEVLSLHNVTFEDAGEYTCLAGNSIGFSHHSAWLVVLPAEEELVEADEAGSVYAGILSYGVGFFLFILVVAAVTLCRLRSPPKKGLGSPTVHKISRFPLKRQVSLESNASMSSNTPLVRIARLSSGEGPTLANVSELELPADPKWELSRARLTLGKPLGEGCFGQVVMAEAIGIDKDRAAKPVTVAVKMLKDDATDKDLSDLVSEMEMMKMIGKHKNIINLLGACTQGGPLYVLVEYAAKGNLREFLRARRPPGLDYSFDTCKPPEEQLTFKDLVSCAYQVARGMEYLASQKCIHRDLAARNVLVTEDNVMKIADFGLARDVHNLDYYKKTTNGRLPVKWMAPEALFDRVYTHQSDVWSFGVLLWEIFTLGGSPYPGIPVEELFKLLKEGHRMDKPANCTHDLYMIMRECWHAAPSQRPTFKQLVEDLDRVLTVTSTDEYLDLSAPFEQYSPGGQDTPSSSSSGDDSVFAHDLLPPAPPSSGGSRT
Description: Inhibition of FGFR3 (unknown orgin) using Tyr 04 peptide as substrate incubated for 1 hr in presence of 75 uM ATP by FRET based Z'-LYTE assay

[5] = molecular target: Fibroblast growth factor receptor 1 (Homo sapiens, UniProt P11362)
Fibroblast growth factor receptor 1, sequence (P11362 whole entry): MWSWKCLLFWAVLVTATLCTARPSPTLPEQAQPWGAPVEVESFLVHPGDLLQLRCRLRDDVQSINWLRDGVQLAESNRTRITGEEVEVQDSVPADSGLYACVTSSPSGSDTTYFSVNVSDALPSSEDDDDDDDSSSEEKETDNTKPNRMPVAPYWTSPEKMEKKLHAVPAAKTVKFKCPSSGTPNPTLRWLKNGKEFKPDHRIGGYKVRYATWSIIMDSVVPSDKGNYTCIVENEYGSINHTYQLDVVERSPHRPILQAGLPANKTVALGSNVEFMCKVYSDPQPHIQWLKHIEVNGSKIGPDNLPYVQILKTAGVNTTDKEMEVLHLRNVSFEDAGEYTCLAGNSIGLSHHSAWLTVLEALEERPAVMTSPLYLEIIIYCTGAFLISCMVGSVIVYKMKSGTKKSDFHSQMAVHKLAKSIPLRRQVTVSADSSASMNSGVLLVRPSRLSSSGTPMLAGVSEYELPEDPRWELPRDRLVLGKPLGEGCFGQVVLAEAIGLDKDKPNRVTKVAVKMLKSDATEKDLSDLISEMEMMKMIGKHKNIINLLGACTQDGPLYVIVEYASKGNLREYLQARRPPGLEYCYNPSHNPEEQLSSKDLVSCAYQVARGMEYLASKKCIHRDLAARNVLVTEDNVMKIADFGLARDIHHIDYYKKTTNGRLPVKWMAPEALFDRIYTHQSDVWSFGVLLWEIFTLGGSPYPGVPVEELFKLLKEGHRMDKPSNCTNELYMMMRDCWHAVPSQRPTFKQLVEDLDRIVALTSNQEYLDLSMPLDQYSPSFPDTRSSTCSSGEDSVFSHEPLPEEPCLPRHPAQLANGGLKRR
Description: Inhibition of FGFR1 (unknown orgin) using Tyr 04 peptide as substrate incubated for 1 hr in presence of 25 uM ATP by FRET based Z'-LYTE assay

BaF3 [6] = experiment: Antiproliferative activity against mouse BAF3 cells assessed as inhibition of cell growth incubated for 72 hrs by CCK8 assay; assay type: functional, cell-based; details: BaF3, 72 h
[7] = Antiproliferative activity against human JHH7 cells assessed as inhibition of cell growth incubated for 5 days by SRB assay; assay type: functional, cell-based; details: JHH7, 120 h
BaF3 [8] = experiment: cells; details: Mus musculus, BaF3, 72 h; remark: listed apart in the source
Huh-7 = experiment: Antiproliferative activity against human Huh-7 cells assessed as inhibition of cell growth incubated for 5 days by SRB assay; assay type: functional, cell-based; details: Huh-7, 120 h
BaF3 [9] = experiment: Antiproliferative activity against mouse BAF3 cells expressing FGFR4 V550M mutant assessed as inhibition of cell growth incubated for 72 hrs by CCK8 assay; assay type: functional, cell-based; details: BaF3, 72 h

Fibroblast growth factor receptor 2, sequence (P21802 whole entry): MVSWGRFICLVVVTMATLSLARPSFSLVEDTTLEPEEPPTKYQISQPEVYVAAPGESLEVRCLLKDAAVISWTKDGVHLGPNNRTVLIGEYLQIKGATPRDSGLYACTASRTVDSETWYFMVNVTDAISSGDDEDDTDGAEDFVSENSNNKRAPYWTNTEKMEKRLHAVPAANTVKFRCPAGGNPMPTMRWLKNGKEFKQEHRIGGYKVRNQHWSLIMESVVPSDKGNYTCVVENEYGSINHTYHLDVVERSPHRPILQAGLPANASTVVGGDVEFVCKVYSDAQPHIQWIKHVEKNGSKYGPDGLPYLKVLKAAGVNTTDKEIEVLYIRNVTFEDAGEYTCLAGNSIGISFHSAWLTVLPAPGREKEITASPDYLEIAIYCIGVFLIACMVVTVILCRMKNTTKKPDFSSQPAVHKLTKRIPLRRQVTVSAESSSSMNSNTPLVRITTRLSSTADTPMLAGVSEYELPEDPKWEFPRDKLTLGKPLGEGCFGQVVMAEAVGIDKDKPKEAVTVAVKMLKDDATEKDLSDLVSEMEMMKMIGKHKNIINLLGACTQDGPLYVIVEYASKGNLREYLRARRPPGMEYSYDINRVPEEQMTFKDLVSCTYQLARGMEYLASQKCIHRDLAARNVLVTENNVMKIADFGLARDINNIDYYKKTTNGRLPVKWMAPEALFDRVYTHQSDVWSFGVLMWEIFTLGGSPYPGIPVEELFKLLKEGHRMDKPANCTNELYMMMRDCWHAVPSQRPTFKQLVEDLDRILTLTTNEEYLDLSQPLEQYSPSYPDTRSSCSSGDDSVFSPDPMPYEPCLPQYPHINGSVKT

SMILES	pIC50 (Hep 3B2)	pIC50 (MDA-MB-453)	pIC50 [1]	pIC50 (BaF3 [2])	pIC50 [3]	pIC50 (NCI-H1299)	pIC50 [4]	pIC50 [5]	pIC50 (BaF3 [6])	pIC50 [7]	pIC50 (BaF3 [8])	pIC50 (Huh-7)	pIC50 (BaF3 [9])
C=CC(=O)Nc1cccc(C2CC2)c1Nc1n[nH]c2ccc(O[C@H](C)c3c(Cl)cncc3Cl)cc12	4.82	5.12	< 5.00	6.28	< 5.00	5.29	< 5.00	–	–	–	–	–	–
C=CC(=O)Nc1ccccc1Nc1n[nH]c2ccc(OC(C)c3c(Cl)ccc(F)c3Cl)cc12 (centres undefined)	–	–	< 5.00	–	–	–	< 5.00	–	–	–	–	–	–
C=CC(=O)Nc1cc(N2CCC(N3CCN(C)CC3)CC2)cc(F)c1Nc1n[nH]c2ccc(O[C@H](C)c3c(Cl)cncc3Cl)cc12	7.33	8.00	< 5.00	8.77	–	5.80	< 5.00	< 5.00	–	–	–	–	–
C=CC(=O)Nc1cccc(CC)c1Nc1n[nH]c2ccc(O[C@H](C)c3c(Cl)cncc3Cl)cc12	4.79	5.12	< 5.00	< 5.70	< 5.00	5.34	< 5.00	–	–	–	–	–	–
C=CC(=O)Nc1cc(N2CCN(C)CC2)cc(F)c1Nc1n[nH]c2ccc(O[C@H](C)c3c(Cl)cncc3Cl)cc12	7.74	7.74	< 5.00	9.05	–	5.69	< 5.00	< 5.00	< 6.00	7.55	8.60	7.02	8.43
C=CC(=O)Nc1cc(N2CCN(C)CC2)ccc1Nc1n[nH]c2ccc(O[C@H](C)c3c(Cl)cncc3Cl)cc12	6.54	6.92	< 5.00	8.22	–	5.60	< 5.00	–	–	–	–	–	–
C=CC(=O)Nc1cn(C)nc1Nc1n[nH]c2ccc(O[C@H](C)c3c(Cl)cncc3Cl)cc12	–	–	< 5.00	–	–	–	< 5.00	–	–	–	–	–	–
C=CC(=O)Nc1cccc(OC)c1Nc1n[nH]c2ccc(O[C@H](C)c3c(Cl)cncc3Cl)cc12	4.98	5.28	< 5.00	5.45	–	5.31	< 5.00	–	–	–	–	–	–
C=CC(=O)Nc1cc(N2CCC(N(C)C)CC2)cc(F)c1Nc1n[nH]c2ccc(O[C@H](C)c3c(Cl)cncc3Cl)cc12	7.30	8.15	< 5.00	8.82	–	5.80	< 5.00	< 5.00	–	–	–	–	–
C=CC(=O)Nc1ccccc1Nc1n[nH]c2ccc(OC(C)c3c(Cl)cccc3Cl)cc12 (centres undefined)	–	–	< 5.00	–	< 5.00	–	< 5.00	–	–	–	–	–	–
C=CC(=O)Nc1cc(N2CCN(S(C)(=O)=O)CC2)cc(F)c1Nc1c[nH]c2ccc(O[C@H](C)c3c(Cl)cncc3Cl)cc12	6.96	7.48	< 5.00	8.19	–	5.56	< 5.00	< 5.00	–	–	–	–	–
C=CC(=O)Nc1ccccc1Nc1n[nH]c2ccc(O[C@H](C)c3c(Cl)cncc3Cl)cc12	–	–	6.02	–	–	–	–	–	–	–	–	–	–
C=CC(=O)N1CC[C@@H](Nc2n[nH]c3ccc(O[C@H](C)c4c(Cl)cncc4Cl)cc23)C1	–	–	< 5.00	–	–	–	< 5.00	–	–	–	–	–	–
C=CC(=O)Nc1cc(N2CCOCC2)cc(F)c1Nc1n[nH]c2ccc(O[C@H](C)c3c(Cl)cncc3Cl)cc12	6.66	7.19	< 5.00	8.02	–	5.42	< 5.00	–	–	–	–	–	–
C=CC(=O)Nc1ccccc1Nc1n[nH]c2ccc(OC(CC)c3c(Cl)cncc3Cl)cc12 (centres undefined)	–	–	< 5.00	–	–	–	–	–	–	–	–	–	–
C=CC(=O)N[C@H]1CCOC[C@H]1Nc1n[nH]c2ccc(O[C@H](C)c3c(Cl)cncc3Cl)cc12	–	–	< 5.00	–	< 5.00	–	< 5.00	–	–	–	–	–	–
